Data set [1] concerns A549 cells. The conditions noted are these: MTT, ref [75]; cited from earlier work.
In data set [2] the test system is A/Puerto Rico/8/1934 H1N1. The conditions noted are these: A/Puerto Rico/8/1934 H1N1, quantitative real-time PCR; ref [75]; cited from earlier work. Background: Quantitative PCR measures a nucleic acid by following its amplification.
In data set [3] the test system is SARS-CoV-2. The settings on record: SARS-CoV-2, Vero E6; ref [76]; cited from earlier work.
Data set [4] is described as follows: in vitro. The settings on record: African green monkey, CC50, Vero E6 cells, crystal violet, 3 days.
Data set [5] relates to Vero E6 cells. The settings on record: MTT assay, ref [76]; cited from earlier work. A general note: Tetrazolium assays rely on reduction of a dye to a coloured formazan, in cell work by metabolically active cells.

Converted amounts (≈) assume the structure as drawn.

In general, CC50 refers to the concentration at which the toxic effect on the cells reaches its halfway point. On to `Cc1ccc(C(C)C)c(O)c1` [Thymol], for which, in data set [1], the half-maximal cytotoxic concentration was 49.4 µg/mL. The “concentration that effectively reduced the viral titer” value in data set [2] was 25 µg/mL. In addition, in data set [3], the “viral inhibition percentage (plaque reduction)” value is 96%. Also, the values for the CC50 in data set [4] and in data set [5] were 63.3 µg/mL (≈ 421 µM) and 617 µM, respectively.

The values are drawn from PMC12217544 (Scientific Reports, 2025).
